According to patent publication US6939896B2, “Cd45 inhibitors” (AstraZeneca AB, priority 1999, dated 2005):

Columns and labels:
[1] = biological target: T1, CD45 (Homo sapiens, UniProt P08575); assay: Phosphatase assay using lck 10-mer as substrate; format: biochemical; settings: lck carboxy-terminal peptide TEGQpYQPQP substrate, pH 7.2, 5% DMSO, read-out: Ick IC50
T1 construct: incubating the cytosolic portion of CD45 with the compounds and p-nitrophenyl phosphate (pNPP); purchased BIOMOL (Plymouth Meeting, Pa.)
T1 sequence (P08575 599-1306 limits assumed): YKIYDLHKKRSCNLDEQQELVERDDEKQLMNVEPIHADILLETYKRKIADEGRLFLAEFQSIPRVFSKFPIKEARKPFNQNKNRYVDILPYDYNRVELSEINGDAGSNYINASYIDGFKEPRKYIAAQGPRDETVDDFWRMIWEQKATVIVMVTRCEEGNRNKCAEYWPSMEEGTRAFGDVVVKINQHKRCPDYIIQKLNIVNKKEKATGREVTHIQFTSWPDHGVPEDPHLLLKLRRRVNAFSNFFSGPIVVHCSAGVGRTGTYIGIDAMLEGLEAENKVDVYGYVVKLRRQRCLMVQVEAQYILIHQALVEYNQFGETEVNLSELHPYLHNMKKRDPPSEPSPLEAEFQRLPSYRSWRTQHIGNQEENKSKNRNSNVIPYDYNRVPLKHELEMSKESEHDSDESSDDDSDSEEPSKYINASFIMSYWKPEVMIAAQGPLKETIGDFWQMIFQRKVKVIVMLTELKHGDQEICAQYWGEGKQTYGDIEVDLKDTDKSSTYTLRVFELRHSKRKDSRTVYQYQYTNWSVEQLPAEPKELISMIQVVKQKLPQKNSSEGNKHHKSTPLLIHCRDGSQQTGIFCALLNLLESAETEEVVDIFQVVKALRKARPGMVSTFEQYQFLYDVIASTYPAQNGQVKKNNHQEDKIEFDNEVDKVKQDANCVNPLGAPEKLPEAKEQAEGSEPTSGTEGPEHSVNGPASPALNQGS
Procedure: (§1) Potent inhibitors of CD45 have been discovered. Such inhibitors are useful for the treatment of various autoimmune disorders as well as for treatment of OGR. Inhibition of the phosphatase activity of CD45 by compounds of the present invention has been shown by incubating the cytosolic portion of CD45 with the compounds and p-nitrophenyl phosphate (pNPP), a phosphatase substrate. Spectrophotometric monitoring has shown that the liberation of p-nitrophenol from the substrate by CD45 is inhibited in the presence of the compounds disclosed herein. Inhibition of the phosphatase activity of CD45 by compounds of the present invention has also been shown using a p56^lck carboxy-terminal phosphorylated peptide as a substrate.
Phosphatase activity was assayed in 96 well plates in a buffer containing final concentrations of 25 mM HEPES at pH 7.2, 5 mM DTT and 10 μg/mL BSA, using the lck carboxy-terminal peptide TEGQpYQPQP as the substrate (Cho, H., Krishnaraj. R., Itoh. M., Kitas, E., Bannwarth, W., Saito, H., Walsh, C. T. 1993. Substrate specificities of catalytic fragments of protein tyrosine phosphatases (HPTPb, LAR. and CD45) toward the phosphotyrosylpeptide substrates and thiophosphotyrosylated peptides as inhibitors. Protein Science 2:977-984). Compounds were tested in a range from 30 to 0.01 μM in a final concentration of 5% DMSO. Enzyme was incubated with substrate. with or without compound, at room temperature for 1.5 h. At the end of the incubation period, BIOMOL “Green Reagent” (BIOMOL, Plymouth Meeting, Pa.) was added to each well, the plates incubated at room temperature for 30 min and absorbance read at 620 nm.

[2] = tested on: Peripheral blood mononuclear cells (T cells); assay: T cell proliferation assay (anti-CD3 OKT3-activated PBMC, [3H]thymidine); format: cell-based; settings: human PBMC activated with OKT3 30 ng/mL, read-out: T cell prolif. IC50
Procedure: Whole blood was obtained from healthy human blood donors. Peripheral blood mononuclear cells (“PBMC”) were isolated using Lymphoprep density-gradient centrifugation (Nycomed Amersham, Oslo, Norway), washed, counted and resuspended at 2×10^6 cells/mL in RPMI 1640 medium containing glutamine, 0.1 mg/mL gentamycin and 10% heat inactivated human serum. PBMC were transferred to 96-well plates (2×10^5 cells/well) containing compound or vehicle control, with the final concentration of DMSO not to exceed 0.3% and incubated for 1 hour before addition of the activating anti-CD3 antibody, OKT3 (30 ng/mL). After 24 hours in culture, the cells were pulsed with [3H]thymidine (1 μCi/well) overnight and harvested the next day onto 96-well Packard GF/C filter plates using a Packard Cell Harvester (Packard Instruments, Meriden, Conn.). The filter plate was dried, the bottom of the plate sealed, 25 μL of Microscint 20 scintillation fluid added to each well, the top of the plate sealed with TopSeal-A, and the plate counted on a Packard TopCount. The data from the TopCount is transferred into Excel 5 (Microsoft, Redmond, Wash.) and formatted for EC50 determination using Prism software (GraphPad Software, San Diego, Calif.).

[3] = biological target: T1, CD45; assay: Phosphatase assay using pNPP as substrate; format: biochemical; settings: pH 7.0
Procedure: as §1
CD45 enzyme was obtained from BIOMOL (Plymouth Meeting, Pa.). Phosphatase activity was assayed in a buffer containing final concentrations of 25 mM imidazole at pH 7.0, 50 mM NaCl, 2.5 mM ethylenediaminetetraacetic acid (“EDTA”), 5 mM dithiothreitol (“DTT”) and 10 μg/mL bovine serum albumin (“BSA”) using pNPP as a substrate.
Activity was measured by following the increase in absorbance at 405 nm using a SpectraMax Plus spectrophotometric plate reader (Molecular Devices, Sunnyvale, Calif.).

[4] = Cytotoxicity assay (Calcein-AM uptake); format: cell-based; settings: human, T-cell lymphoblasts (PHA-expanded PBMC), overnight incubation, Calcein-AM viability

## O=C1C=C(c2ccccc2Cl)c2ccccc2C1=O [Example 9, 4-(2-Chloro-phenyl)-[1,2]naphthoquinone]
[1]
  IC50: > 30 µM
[2]
  IC50: 0.3 µM
[3]
  IC50: 8 µM
[4]
  CC50: 124 µM

## COC(=O)c1ccc2c(c1)C=CC(=O)C2=O [Example 17, 5,6-Dioxo-5,6-dihydro-naphthalene-2-Carboxylic acid methyl ester]
[1]
  IC50: > 30 µM
[2]
  IC50: 7 µM
[3]
  IC50: 7 µM
[4]
  CC50: > 30 µM

## O=C1C=C(Cl)c2ccccc2C1=O [Example 5, 4-Chloro-[1,2]naphthoquinone]
[1]
  IC50: > 30 µM
[2]
  IC50: > 30 µM
[3]
  IC50: 10 µM
[4]
  CC50: > 30 µM

## O=C1C=C(c2cccc3ccccc23)c2ccccc2C1=O [Example 12, [1,1′]Binaphthalenyl-3,4-dione]
[1]
  IC50: > 30 µM
[2]
  IC50: 3.2 µM
[3]
  IC50: 22.5 µM
[4]
  CC50: > 30 µM

## O=C1C=C(c2ccccc2)c2ccccc2C1=O [Example 11, 4-Phenyl-[1,2]naphthoquinone]
[1]
  IC50: > 30 µM
[2]
  IC50: 0.15 µM
[3]
  IC50: 5 µM
[4]
  CC50: 12 µM

## COC1=CC(=O)C(=O)c2ccccc21 [Example 3, 4-Methoxy-[1,2]naphthoquinone]
[1]
  IC50: 4.2 µM
[2]
  IC50: > 30 µM
[3]
  IC50: 1.2 µM

## Cn1cc(C2=CC(=O)C(=O)c3ccccc32)c2ccccc21 [Example 7, 4-(1-Methyl-1H-indol-3-yl)-[1,2]naphthoquinone]
[1]
  IC50: 19 µM
[2]
  IC50: 1.5 µM
[3]
  IC50: 5 µM
[4]
  CC50: > 30 µM

## O=C1C=Cc2cc(C(=O)c3ccccc3)ccc2C1=O [Example 15, 6-Benzoyl-[1,2]naphthoquinone]
[1]
  IC50: > 30 µM
[2]
  IC50: 11 µM
[3]
  IC50: 22 µM
[4]
  CC50: > 30 µM

## O=C1C=C(Br)c2ccccc2C1=O [Example 6, 4-Bromo-[1,2]naphthoquinone]
[1]
  IC50: > 30 µM
[2]
  IC50: 22 µM
[3]
  IC50: 8.7 µM
[4]
  CC50: > 30 µM

## CCOC1=CC(=O)C(=O)c2ccccc21 [Example 2, 4-Ethoxy-[1,2]naphthoquinone]
[2]
  IC50: > 30 µM
[3]
  IC50: 2 µM
[4]
  CC50: 30 µM

## C=CCOC1=CC(=O)C(=O)c2ccccc21 [Example 4, 4-Allyloxy-[1,2]naphthoquinone]
[1]
  IC50: 4.9 µM
[2]
  IC50: > 30 µM
[3]
  IC50: 1.2 µM
[4]
  CC50: > 30 µM

## O=C1C=C(c2cccc([N+](=O)[O-])c2)c2ccccc2C1=O [Example 14, 4-(3-Nitro-phenyl)-[1,2]naphthoquinone]
[1]
  IC50: > 30 µM
[2]
  IC50: 0.2 µM
[3]
  IC50: 7.9 µM
[4]
  CC50: 4 µM

## O=C1C=Cc2ccccc2C1=O [Example 1, [1,2]-Naphthoquinone]
[1]
  IC50: > 30 µM
[2]
  IC50: 7 µM
[3]
  IC50: 3 µM
[4]
  CC50: > 30 µM

## COC(=O)c1cccc2c1C=CC(=O)C2=O [Example 16, 5,6-Dioxo-5,6-dihydro-naphthalene-1-Carboxylic acid methyl ester]
[1]
  IC50: > 30 µM
[3]
  IC50: 11 µM
[4]
  CC50: > 30 µM

## O=C1C=C(c2c(-c3ccccc3)[nH]c3ccccc23)c2ccccc2C1=O [Example 8, 4-(2-Phenyl-1H-indol-3-yl)-[1,2]naphthoquinone]
[1]
  IC50: 20 µM
[2]
  IC50: 2 µM
[3]
  IC50: 2.9 µM
[4]
  CC50: 16 µM

## O=C1C=C(c2ccc(Br)cc2)c2ccccc2C1=O [Example 10, 4-(4-Bromo-phenyl)-[1,2]naphthoquinone]
[1]
  IC50: > 30 µM
[2]
  IC50: 0.11 µM
[3]
  IC50: 7.7 µM
[4]
  CC50: 3 µM

## O=C1C=Cc2ccc(O)cc2C1=O [Example 18, 7-Hydroxy-[1,2]naphthoquinone]
[2]
  IC50: > 30 µM
[3]
  IC50: 4.9 µM
[4]
  CC50: > 30 µM

## O=C1C=C(c2cc(Cl)cc(Cl)c2)c2ccccc2C1=O [Example 13, 4-(3,5-Dichloro-phenyl)-[1,2]naphthoquinone]
[2]
  IC50: 0.3 µM
[3]
  IC50: 5.5 µM
[4]
  CC50: 5.5 µM
